Measurements published in publication PMC5860131, “Identification of natural products as novel ligands for the human 5-HT2C receptor” (Biophysics Reports, 2018).

Molecular target: T1, 5-HT2C receptor A222^5.46F (Homo sapiens, UniProt P28335, A222F/DEL255-298/G251D/H250E/H252N/INS299[…]/L248D/M247A/M300L/T253W)
T1 construct: the N- and C-terminals were truncated by 39 and 65 residues, respectively; PreScission protease site + 10× His (C); made in house
Test: Affinity MS assay, 5-HT2C mutant A222F
Format: binding
Details: mutant A222^5.46F, n = 2
Source text: Based on the binding poses predicted by molecular docking, single-point mutations were designed to test their impact on ligand binding. Mutations of several residues include the highly conserved Asp134^3.32, which is known to cause 5-HT1B or 5-HT2B receptors to abolish the monoamine ligand binding as reported in the literature (Wang et al. [2013]). In this study, residues forming hydrophobic interactions with the substitution groups on the aporphine scaffold of (–)-crebanine (1) were selected for mutation as well and they are Thr139^3.37, Gly218^5.42, Ala222^5.46, and Leu209^ECL2. Effects of those mutations were tested with the CPM assay and the affinity MS assay (Table 2). In the affinity MS experiment, relative ligand-binding capacity (represented by binding %) to different mutants and the wild-type receptor was compared. Among the six mutations tested, five of them reduced the binding of (–)-crebanine (1) by more than 40% relative to binding to the wild-type receptor, displaying the importance of hydrophobic interactions. […]
Four experimental replicates were prepared for each pair of the test ligand and the negative control. […] S/C ratios refer to the ratio of MS response of a specific ligand detected in the 5-HT2C incubation sample versus the control. […]

T1 sequence (P28335 with tags, fused parts or gaps with the stated changes): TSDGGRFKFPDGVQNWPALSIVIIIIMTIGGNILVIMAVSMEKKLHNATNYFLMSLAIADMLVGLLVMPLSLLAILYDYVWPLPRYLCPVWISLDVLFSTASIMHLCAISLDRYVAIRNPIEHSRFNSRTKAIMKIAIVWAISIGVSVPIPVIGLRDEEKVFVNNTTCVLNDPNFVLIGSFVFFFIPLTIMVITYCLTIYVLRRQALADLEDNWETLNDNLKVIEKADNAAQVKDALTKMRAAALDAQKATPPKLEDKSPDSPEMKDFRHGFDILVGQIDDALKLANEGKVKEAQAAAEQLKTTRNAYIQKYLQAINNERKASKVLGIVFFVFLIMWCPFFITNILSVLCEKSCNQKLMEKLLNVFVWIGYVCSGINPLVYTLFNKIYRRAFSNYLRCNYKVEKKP

COc1ccc2c(c1OC)C[C@@H]1c3c(cc4c(c3-2)OCO4)CCN1C [Compound 1, (–)-crebanine] was tested, and the “(–)-Crebanine/MS relative ligand binding” value was 15.87%.
